From patent US20260226049A1, “NITROGEN-CONTAINING HETEROCYCLIC COMPOUND, PREPARATION METHOD THEREFOR, AND USE THEREOF” (BIVISION PHARMACEUTICALS, INC, priority 2023, published 2026)

Tested on: HT1080 cell line with high FAP expression
Experiment: Therapeutic experiment of ^177Lu-labeled compounds in tumor-bearing mice
Type: in vivo, Balb/c Nude mice
Conditions: for T/C / Tumor volume (mm^3) Group administration Day 14 / TGI^TV (%): 0.8 mCi; for T/C / Tumor volume (mm^3) Group administration Day 14: Day 14; for TGI^TV (%): Day 14, relative tumor inhibition rate; for Tumor volume (mm^3) Before administration: baseline, 0.8 mCi group
Method: Balb/c Nude tumor-bearing mice (supplier: Shanghai Alamo Pharmaceutical Technology Co., Ltd., HT1080 cell line with high FAP expression) aged approximately 6-8 weeks were randomly assigned to 13 experimental groups based on tumor volume, with 5 mice per group. Animal body weight and tumor size were measured, and administration was initiated on the grouping day starting with Group 1 (control group: normal saline). General health and appearance were observed daily after the start of the experiment. Animal body weight and tumor size were measured before each sample collection time point. Any abnormal observations detected during the entire study period were required to be recorded in the raw data.
The synthesized compounds were labeled with ^177Lu and subsequently utilized in the therapeutic assay on mouse tumor models. […] Furthermore, no significant changes in mouse body weight (FIG. 8) were observed throughout the experimental period.
• TGI^TV: Relative tumor inhibition rate (TGI^TV): TGI^TV (%)=[1−(Ti−T0)/(Vi−V0)]×100%; • (Ti: average tumor volume of the treatment group on day i of administration, TO: average tumor volume of the treatment group on day 0 of administration; Vi: average tumor volume of the solvent control group on day i of administration, V0: average tumor volume of the solvent control group on day 0 of administration) • T/C: T/C % is one of the most commonly used indicators for tumor response to treatment: T/C %=T/C*100%; • (T represents the average tumor volume of the treatment group at a specific time point; C represents the average tumor volume of the control group at a specific time point.)
The differences between the treatment groups (tumor volumes of the second, third, fourth, and fifth groups) and the control group (tumor volume of the first group) and between the tumor volumes of the first, third, fourth, and fifth groups and the tumor volume of the second group were analyzed using the two-way ANOVA Fisher's LSD test method. P-values less than 0.05 were considered statistically significant. Both statistical significance and biological significance were taken into account during the result analysis.

| SMILES | therapeutic effects in mouse tumor model (^177Lu-labeled compound) | T/C [%] | Tumor volume (mm^3) Group administration Day 14 [mm^3] | TGI^TV (%) | Tumor volume (mm^3) Before administration [mm^3] |
| --- | --- | --- | --- | --- | --- |
| N#C[C@@H]1CC(F)(F)CN1C(=O)CNC(=O)c1cccc2c1CCCC2C(=O)CCC(=O)NCCNC(=O)CCNC(=O)CN1CCN(CC(=O)O)CCN(CC(=O)O)CCN(CC(=O)O)CC1 (stereo partly drawn) [JHH14] | dose-dependent therapeutic effects |  |  |  |  |
| N#C[C@@H]1CC(F)(F)CN1C(=O)CNC(=O)c1cccc2c1CCN(C(=O)CCC(=O)NCCNC(=O)CCC(C(=O)O)N1CCN(CC(=O)O)CCN(CC(=O)O)CCN(CC(=O)O)CC1)C2 (stereo partly drawn) [^177Lu-JHH5, metal not drawn] |  | 20.89 | 545.74 ± 94.21 | 83.08 | 148.04 ± 9.78 |
| N#C[C@@H]1CC(F)(F)CN1C(=O)CNC(=O)c1cccc(C2CCN(C(=O)CCC(=O)NCCNC(=O)CCC(C(=O)O)N3CCN(CC(=O)O)CCN(CC(=O)O)CCN(CC(=O)O)CC3)CC2)c1.[177Lu] (stereo partly drawn) [^177Lu-JHH9] |  | 30.65 | 800.87 ± 42.08 | 72.54 | 155.24 ± 14.81 |
| N#C[C@@H]1CC(F)(F)CN1C(=O)CNC(=O)c1cccc2c1CCCN2C(=O)CCC(=O)NCCNC(=O)CCC(C(=O)O)N1CCN(CC(=O)O)CCN(CC(=O)O)CCN(CC(=O)O)CC1.[177Lu] (stereo partly drawn) [^177Lu-JHH10] |  | 19.38 | 506.26 ± 26.61 | 84.48 | 141.47 ± 12.20 |
| N#C[C@@H]1CC(F)(F)CN1C(=O)CNC(=O)c1cccc2c1CCCC2C(=O)CCC(=O)NCCNC(=O)CCNC(=O)CN1CCN(CC(=O)O)CCN(CC(=O)O)CCN(CC(=O)O)CC1.[177Lu] (stereo partly drawn) [^177Lu-JHH14] |  | 28.93 | 755.85 ± 58.74 | 74.39 | 153.87 ± 16.47 |
| N#C[C@@H]1CC(F)(F)CN1C(=O)CNC(=O)c1ccnc2c(NC(=O)CCC(=O)NCCNC(=O)CCC(C(=O)O)N3CCN(CC(=O)O)CCN(CC(=O)O)CCN(CC(=O)O)CC3)cccc12.[177Lu] (stereo partly drawn) [^177Lu-OncoFAP-DOTAGA, reference compound] |  | 32.33 | 844.66 ± 41.70 | 69.90 | 137.00 ± 12.07 |
